Results reported in US10357483B2, “Methods comprising dosing combinations for reducing undesired humoral immune responses” (Selecta Biosciences, Inc., priority 2013, dated 2019).

Experiments:
C57BL/6 [1] = experiment: Anti-HUMIRA antibody titers in blood; type: in vivo, mice; settings: day 21; 60 μg HUMIRA s.c. weekly; 0.9 mg nanocarrier admixed on day 0 only
Procedure: Control C57BL/6 age-matched (5-6 weeks) females were injected subcutaneously (s.c.) in the front limbs with 60 μg of HUMIRA once a week until day 29 (on d0, 7, 14, 22, 29, across all groups and conditions). […] The results presented in FIG. 3A show the antibody titers in the blood of all animals at day 21. […] At day 29, the animals received another challenge in one hind limb (a further second dosing) while the other hind limb received saline in order to test the local antibody-mediated type I hypersensitivity response. For this, the thickness of the hind limbs were measured with the help of a caliper one hour after the injection.

huTNFaTg [2] = experiment: Anti-HUMIRA antibody titers in arthritic animals (Example 9); type: in vivo, mice; settings: 60 μg HUMIRA s.c. weekly; 0.87 mg nanocarriers with first 7 injections; FIG. 9A day 21
Procedure: (§1) Transgenic animals overexpressing human tumor necrosis factor alpha (huTNFaTg) develop progressive rheumatoid arthritis over the course of 20 weeks from birth. This process can be prevented by using the fully human anti-human TNFα antibody HUMIRA/adalimumab. However, repetitive administration of the initial therapeutic dose of HUMIRA (60 μg) leads to anti-drug antibody formation (ADA) that neutralizes the therapeutic benefit. Only very high doses can then maintain the therapeutic benefit and surmount the neutralizing immune response. For example, it is thought that about 200 μg is needed to effect maximal inhibition of inflammation in an example of such a mouse model (Binder et al., Arthritis & Rheumatism, Vol. 65 (No. 3), March 2013, pp. 608-617).
(§2) The results in FIG. 9A show the antibody titers in the blood of all animals at day 21.

huTNFaTg [3] = experiment: Arthritis scores of limbs in arthritic animals (Example 9); type: in vivo, mice; settings: 60 μg HUMIRA s.c. weekly, weeks 5 to 15 of age; 0.87 mg nanocarriers with first 7 injections
Procedure: as §1, §2

HuTNFαTg [4] = experiment: Anti-HUMIRA antibody titers in arthritic animals (Example 14); type: in vivo; settings: HUMIRA s.c. weekly weeks 5-10; 0.87 mg nanoparticles with 60 μg Humira for first 3 injections
Procedure: Anti-HUMIRA immune and neutralizing responses in arthritic animals were evaluated. Transgenic animals overexpressing human tumor necrosis factor alpha (huTNFαTg) develop progressive rheumatoid arthritis over the course of 20 weeks from birth. This process can be prevented by using the fully human anti-human TNFα antibody Adalimumab or HUMIRA. However repetitive administration of the initial therapeutic dose of HUMIRA (60 μg) leads to anti-drug antibody formation (ADA) that neutralizes the therapeutic benefit. Higher quantities of Humira (200 μg can be injected to overcome this antagonizing immune response to allow for the therapeutic effect of Humira. Age-matched HuTNFαTg 5 week old female animals were either injected s.c. in the subscapular area with saline (PBS) or 60 μg or 200 μg of HUMIRA weekly (weeks 5-10) or with a mixture of 60 μg of Humira and 0.87 mg of tolerogenic nanoparticles (first dosings) for the first 3 injections (week 5 to 7 of age) followed by 3 weekly injections of HUMIRA alone (same amounts) (second dosings) (weeks 8 to 10 of age). The results in FIG. 11 (left panel) show the antibody titers in the blood of all animals at different time points. […] FIG. 12 illustrates the dosing regimen.

HuTNFαTg [5] = experiment: Arthritis scores of limbs in arthritic animals (Example 14); type: in vivo; settings: HUMIRA s.c. weekly weeks 5-10; nanocarriers with first 3 injections
Procedure: Age-matched HuTNFαTg 5 week old female animals were either injected s.c. in the subscapular area with saline (PBS) or 60 μg or 200 μg of HUMIRA weekly (weeks 5-10) or with a mixture of 60 μg of Humira and 0.87 mg of tolerogenic nanoparticles (first dosings) for the first 3 injections (week 5 to 7 of age) followed by 3 weekly injections of HUMIRA alone (same amounts) (second dosings) (weeks 8 to 10 of age). The results in FIG. 11 (left panel) show the antibody titers in the blood of all animals at different time points. […] FIG. 12 illustrates the dosing regimen.

huTNFaTg [6] = settings: such a mouse model; Binder et al. 2013; cited from earlier work
C57BL/6 [7] = experiment: Anti-KRYSTEXXA IgM antibody titers; type: in vivo, mice; settings: 0.9 mg nanocarriers + 40 μg KRYSTEXXA i.v. days −21 and −14; then 100 μg KRYSTEXXA + 20 μg CpG s.c. day 0 to 28
Procedure: All animals received weekly injections from day 0 to day 28 of 100 μg of KRYSTEXXA combined with 20 μg of CpG s.c. in the hind limb (d0, 7, 12, 28).

C57BL/6 [8] = experiment: Anti-OVA and anti-KLH IgG antibody titers (Example 7); type: in vivo, mice; settings: day 54; pOVA 2.5 μg i.v. weekly; 0.2 mg nanocarriers admixed days 0, 7, 14
Procedure: The control group of C57BL/6 age-matched (5-6 weeks) female were injected i.v. in the tail vein with 2.5 μg of an immunogenic form of particulate Ovalbumin (pOVA) and 2 μg of Keyhole Limpet Hemocyanin (KLH) s.c. in the hind limb once a week for 49 days (d0, 7, 14, 20, 28, 35, 42, 49).

adalimumab [HUMIRA]
anti-HUMIRA antibody titers (C57BL/6 [1]): robust antibody response against HUMIRA
anti-HUMIRA antibody titers (huTNFaTg [2]): robust antibody response
arthritis scores (disease progression) (huTNFaTg [3]): significant blockade of the disease progression
anti-HUMIRA antibody titers (HuTNFαTg [4]): robust anti-HUMIRA antibody response
arthritis scores (disease progression) (HuTNFαTg [5]): significant blockade of the disease progression
dose needed to effect maximal inhibition of inflammation (huTNFaTg [6]): about 200 μg

pegloticase [KRYSTEXXA]
anti-KRYSTEXXA IgM antibody titers (C57BL/6 [7]): develop an immune response against KRYSTEXXA

B1: pOVA: immunogenic form of particulate Ovalbumin (protein, UniProt P01012 2-386, looked up)
Ovalbumin: GSIGAASMEFCFDVFKELKVHHANENIFYCPIAIMSALAMVYLGAKDSTRTQINKVVRFDKLPGFGDSIEAQCGTSVNVHSSLRDILNQITKPNDVYSFSLASRLYAEERYPILPEYLQCVKELYRGGLEPINFQTAADQARELINSWVESQTNGIIRNVLQPSSVDSQTAMVLVNAIVFKGLWEKAFKDEDTQAMPFRVTEQESKPVQMMYQIGLFRVASMASEKMKILELPFASGTMSMLVLLPDEVSGLEQLESIINFEKLTEWTSSNVMEERKIKVYLPRMKMEEKYNLTSVLMAMGITDVFSSSANLSGISSAESLKISQAVHAAHAEINEAGREVVGSAEAGVDAASVSEEFRADHPFLFCIKHIATNAVLFFGRCVSP
modifications: particulate form
notes: immunogenic form of particulate Ovalbumin
anti-OVA IgG antibody titers (C57BL/6 [8]): robust immune response against OVA and KLH
